# Measurements published in article PMC5980259, “GI‐530159, a novel, selective, mechanosensitive two‐pore‐domain potassium (K2P) channel opener, reduces rat dorsal root ganglion neuron excitability” (British Journal of Pharmacology, 2017).
# Assays:
# [1] = tested on: Na current in DRG neurons; assay: Voltage-clamp recordings from DRG neurons, Na current; assay type: cell-based, rat
# Protocol: Acutely dissociated rat DRG cells were obtained according to a previously described protocol (Passmore, 2005). All animal care and experimental procedures complied with guidelines and were approved by the Pfizer Neusentis Institutional Animal Use and Care Committee. Animal studies are reported in compliance with the ARRIVE guidelines (Kilkenny et al., 2010; McGrath and Lilley, 2015).Cells were plated on coated coverslips (poly‐D‐lysine/laminin, BD Biosciences, San Jose, CA, USA) prior to patching on the same day. Cells were perfused with an extracellular solution containing (in mM): 135 NaCl, 4.7 KCl, 1 CaCl2, 1 MgCl2, 10 HEPES and 10 glucose, pH 7.4, with NaOH (310 mOsmol·L^−1). Pipette solution contained (in mM): 130 KCl, 1 MgCl2, 5 MgATP, 10 HEPES and 5 EGTA, pH adjusted to 7.3 with KOH (290 mOsmol·L^−1). For whole‐cell recordings, currents were filtered at 2 kHz and sampled at 5 kHz. Series resistance was compensated for by up to 80%. For current‐clamp recordings, action potential firing and resting membrane potential (RMP) were recorded from small cells ([…]). GI‐530159 was dissolved in 0.3% DMSO as 10 mM stock and applied in the vicinity of cells using a gravity fed perfusion system (MSC‐200, Bio‐Logic SAS, Claix, France).
# TASK2 (K2P5.1) = TASK2 (K2P5.1) (Homo sapiens, UniProt O95279); assay: Rb+ efflux assay, TASK2; assay type: cell-based
# hTREK1 [2] = target: T1, hTREK1 (Homo sapiens, UniProt O95069); assay: Automated whole-cell patch clamp (Qpatch), CHO–TREK1 cells; assay type: cell-based; design: expressed in transfected cells; conditions: 1 μM; stably transfected CHO cells
# T1 sequence (O95069 1-426): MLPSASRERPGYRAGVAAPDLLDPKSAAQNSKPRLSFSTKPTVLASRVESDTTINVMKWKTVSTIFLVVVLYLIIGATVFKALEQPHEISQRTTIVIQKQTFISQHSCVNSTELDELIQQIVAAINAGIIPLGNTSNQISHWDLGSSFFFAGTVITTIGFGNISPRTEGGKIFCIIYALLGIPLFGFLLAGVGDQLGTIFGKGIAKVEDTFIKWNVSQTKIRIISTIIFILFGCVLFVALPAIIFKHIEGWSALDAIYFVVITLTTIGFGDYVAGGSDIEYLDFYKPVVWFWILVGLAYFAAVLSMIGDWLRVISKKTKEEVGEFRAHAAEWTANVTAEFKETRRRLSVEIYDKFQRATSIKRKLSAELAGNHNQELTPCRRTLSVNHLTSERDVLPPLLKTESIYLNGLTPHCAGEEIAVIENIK
# Protocol: Automated patch‐clamp studies were performed with the Qpatch Sophion Bioscience A/S (Ballerup, Denmark) automated patch‐clamp platform. Sixteen‐well Qplates were loaded with CHO cells stably expression human recombinant TREK1 (CHO–TREK1 cells) in external buffer containing (in mM) 148 NaCl, 5 KCl, 1 CaCl2, 1 MgCl2, 10 HEPES and 10 glucose. Internal recording solution was (in mM) 100 K gluconate, 40 KCl, 1 MgCl2, 10 BAPTA, 10 HEPES and 1 MgATP.
# Supplementary Information
# Supplementary Figure S1: Activation of hTREK1 current by GI-530159 in automated patch […]
# Figure S1: Activation of hTREK1 current by GI-530159 in automated patch recordings.
# A) Human TREK1 current elicited by pulse protocol shown recorded on Qpatch 16 automated patch clamp platform after administration of 0.1% DMSO vehicle, 1 µM GI-530159 or after washout with 0.1% DMSO. B) Time course of TREK1 current amplitude recorded at 0 mV on Qpatch platform before during and after washout of 1 µM GI-530159.
# (1 picture or pasted object on this page, not shown here)
# Kv7.1 = Kv7.1 (Homo sapiens, UniProt P51787); assay: Rb+ efflux assay, Kv7.1; assay type: cell-based
# [3] = target: T2, human TREK1 single channels (Homo sapiens, UniProt O95069); assay: Single-channel recording, excised inside-out patches from HEK293 cells; assay type: biochemical; conditions: 10 μM on intracellular side, +60 mV
# T2 construct: expressed in transfected cells
# Protocol: Human TREK1 single channels were recorded in excised inside‐out membrane patches using an Axopatch 200B patch‐clamp amplifier and pCLAMP 10 software. Inside‐out membrane patches were excised from HEK293 cells expressing human TREK1 channels. Sylguard® 184‐coated glass pipettes with resistance around 10–15 MΩ were used. Pipette and bath compositions for inside‐out patches were opposite to those used in voltage‐clamp, that is, the pipette solution on the extracellular face of the channels contained 130 mM K and the bath solution on the intracellular face of the channel contained 4.7 mM K. Channel activities were recorded at +60 mV. The action of a hTREK1 opener was tested by addition to the intracellular solution. Single‐channel records were filtered with an eight‐pole Bessel filter (model LHBF‐48X, npi electronic GmbH, Tamm, Germany) at a corner frequency (fc) of 2 kHz and acquired using a DigiData 1440A interface and pCLAMP 10 software at a sampling rate of 20 kHz. Single‐channel traces were generated without further filtering.
# Kv7.2 = Kv7.2 (Homo sapiens, UniProt O43526); assay: Rb+ efflux assay, Kv7.2; assay type: cell-based
# hTREK1 [4] = target: T1, hTREK1; assay: Whole-cell patch clamp, transiently transfected tsA-201 cells, TREK1; assay type: cell-based; design: expressed in transfected cells; host or cells: tsA-201, transient, pcDNA3.1 vector, GFP from a separate vector; conditions: 1 μM, n = 6
# Protocol: Recordings of hTREK1, hTREK1∆N, hTREK2, hTRAAK and […] currents from transiently transfected tsA‐201 cells were performed using methods as described in Veale and Mathie (2016). Briefly, the pcDNA3.1 vector was cloned with the gene of interest, and these vectors and a similar vector containing GFP were incorporated into the tsA201 cells (0.5 μg per well) using the calcium phosphate method. The cells were incubated for 6–12 h at 37°C in […] and 5% carbon dioxide. Cells were then washed using a PBS solution and used for experiments after 24 h.
# Currents were recorded using whole‐cell patch‐clamp using an Axopatch 1D amplifier. Cells were placed in a recording chamber filled with an external medium composed of 145 mM, NaCl, 2.5 mM KCl, 3 mM MgCl2, 1 mM CaCl2 and 10 mM HEPES (pH to 7.4, using NaOH). The internal medium used in the glass pipette comprised 150 mM KCl, 3 mM MgCl2, 5 mM (or 0.1 mM) EGTA and 10 mM HEPES (pH to 7.4, using KOH). GI‐530159 was applied by bath perfusion. Currents were recorded and analysed using pCLAMP 10.2 software Microsoft Excel. The voltage protocol used for recording current through K2P channels was as previously described (Veale and Mathie, 2016). For analysis, we measured the current difference between the −80 and −40 mV steps.
# Sequence of TASK2 (K2P5.1) (O95279 whole entry, species assumed): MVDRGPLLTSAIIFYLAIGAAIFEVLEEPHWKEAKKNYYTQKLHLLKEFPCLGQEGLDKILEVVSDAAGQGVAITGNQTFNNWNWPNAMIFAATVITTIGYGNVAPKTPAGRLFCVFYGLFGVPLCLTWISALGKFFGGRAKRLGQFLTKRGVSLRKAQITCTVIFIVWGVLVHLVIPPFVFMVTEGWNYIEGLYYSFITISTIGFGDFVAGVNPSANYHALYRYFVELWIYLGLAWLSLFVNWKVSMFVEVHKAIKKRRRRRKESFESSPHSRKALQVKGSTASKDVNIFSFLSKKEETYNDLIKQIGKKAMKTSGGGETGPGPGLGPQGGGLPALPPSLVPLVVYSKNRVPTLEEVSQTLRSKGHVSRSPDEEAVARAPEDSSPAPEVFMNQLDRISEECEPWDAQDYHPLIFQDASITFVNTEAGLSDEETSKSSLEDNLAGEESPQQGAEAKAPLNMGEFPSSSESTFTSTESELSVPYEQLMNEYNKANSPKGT
smiles,measurement,setting,value
"Nc1ccc(Oc2ccc(C(c3ccc(Oc4ccc(N)cc4)cc3)(C(F)(F)F)C(F)(F)F)cc2)cc1 [GI‐530159, 4,4′‐(hexafluoroisopropylidene)bis(p‐phenyleneoxy)dianiline]",block of Na current in DRG neurons,[1],not observed
same,activator effect on TASK2 (K2P5.1),TASK2 (K2P5.1),no activator effects
same,"effect on hTREK1 current, Qpatch",hTREK1 [2],effective at reversibly enhancing current
same,activator effect on Kv7.1,Kv7.1,no activator effects
same,single-channel current amplitude,[3],not altered
same,channel open probability,"[3]; exemplar recording, 0.009 before application",0.025
same,activator effect on Kv7.2,Kv7.2,no activator effects
same,enhancement of TREK1 current,hTREK1 [4],69 ± 12%
